Results as given in PMC3265476, “Functional Characterization of MODY2 Mutations Highlights the Importance of the Fine-Tuning of Glucokinase and Its Role in Glucose Sensing” (PLoS ONE, 2012).
Substitutions are numbered along the chain they refer to. Each block holds one molecule with its values, some of them ahead of it.

Experiments:
Format in all cases: biochemical
GST-GK(p.Ala449Thr) [1] = biological target: T1, GST-GK(p.Ala449Thr) (Homo sapiens, UniProt P35557, A449T); assay: Inhibition of glucokinase activity by palmitoyl-CoA, Dixon plots
T1 construct: made in house; host or cells: E. coli
T1 sequence (P35557 1-465 A449T): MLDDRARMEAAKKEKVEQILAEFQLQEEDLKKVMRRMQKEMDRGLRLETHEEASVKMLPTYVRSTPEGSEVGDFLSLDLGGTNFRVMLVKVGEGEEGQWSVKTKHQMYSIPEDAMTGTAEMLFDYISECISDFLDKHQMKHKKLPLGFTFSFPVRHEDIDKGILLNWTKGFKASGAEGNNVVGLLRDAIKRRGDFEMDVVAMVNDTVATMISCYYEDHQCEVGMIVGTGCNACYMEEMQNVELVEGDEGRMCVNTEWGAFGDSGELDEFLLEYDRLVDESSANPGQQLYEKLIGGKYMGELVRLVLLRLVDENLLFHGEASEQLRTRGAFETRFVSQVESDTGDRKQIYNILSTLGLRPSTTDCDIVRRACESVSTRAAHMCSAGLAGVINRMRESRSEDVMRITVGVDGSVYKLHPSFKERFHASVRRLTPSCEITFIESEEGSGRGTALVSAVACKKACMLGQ
Experimental: (§1) Glucokinase activity was measured spectrophotometrically on a spectrophotometer Uviconxl (Secoman), using an NADP^+-coupled assay with glucose-6-phosphate dehydrogenase, as described previously. The final reaction mixture contained 100 mM Tris pH 7.4, 150 mM KCl, 1 mM MgCl2, 1.4 mM ß-mercaptoethanol, 0.1% BSA, 5 mM ATP-MgCl2, 1 mM NADP^+, and 1 U/ml glucose-6-phosphate dehydrogenase. Determination of kinetic parameters and thermal stability tests were performed as in [20]. […] Inhibition by NAG and MH was determined under standard assay conditions with 50 nM glucokinase. The inhibition by palmitoylCoA was determined in reaction mixtures containing 25 mM Hepes pH 7.1; 25 mM KCl; 1 mM NADP, 1 mM ATP-MgCl2; 2.5 mM MgCl2; 5 mM ß-mercaptoethanol, 1 U/ml glucose-6-phosphate dehydrogenase and 61 nM glucokinase. Due to the low Kcat value of mutant GST-GK(pAla449Thr), the amount of protein used in inhibition assays was 180 nM to get sufficient activity to allow for accurate determination of the inhibitor effect. In these conditions, GK activity (U/mg of GST-GK(pAla449Thr)) in the absence of inhibitors was 1.3±0.08, 1.1±0.06 and 0.9±0.05 at 2, 1.5 and 1 mM of glucose, respectively for NAG and MH assays and 0.5±0.05, 0.33±0.03 and 0.27±0.03 at 2, 1.5 and 1 mM glucose, respectively for palmitoyl-CoA assay.

Wild-type GST-GK = biological target: T2, Wild-type GST-GK (Homo sapiens, UniProt P35557); assay: as above; settings: glucose 2, 5 and 8 mM; 61 nM glucokinase; read-out: I50 for palmitoyl-CoA
T2 construct: made in house; host or cells: E. coli
T2 sequence (P35557 1-465): T1 sequence (P35557 1-465 A449T) with T449A
Experimental: as §1

GST-GK(p.Gly223Ser) = biological target: T3, GST-GK(p.Gly223Ser) (Homo sapiens, UniProt P35557, G223S); assay: as above; settings: glucose 12.5, 25 and 50 mM; read-out: I50 for palmitoyl-CoA
T3 construct: made in house; host or cells: E. coli
T3 sequence (P35557 1-465 G223S): T1 sequence (P35557 1-465 A449T) with G223S, T449A
Experimental: as §1

GST-GK(p.Ala449Thr) [2] = biological target: T1, GST-GK(p.Ala449Thr); assay: Inhibition of glucokinase activity by human GKRP; settings: 5 mM glucose; GKRP 0 to 200 nM; 10 µM S6P or 0.2 mM F1P
Experimental: Purified human GKRP was kindly provided by KJ Brocklehurst (Cardiovascular and Gastrointestinal Department, AstraZeneca, Macclesfield, Cheshire SK10 4TG, UK). The effect of GKRP on glucokinase activity was determined as described. The final reaction mixture contained 25 mM Hepes pH 7.1; 25 mM KCl; 1 mM NADP, 1 mM ATP-MgCl2; 2.5 mM MgCl2; 5 mM ß-mercaptoethanol, 1 U/ml glucose-6-phosphate dehydrogenase, 61 nM of GST-GK or 180 nM GST-GK(pAla449Thr), 5 mM glucose, GKRP (0 to 200 nM) and, when indicated, 10 µM sorbitol-6-phosphate (S6P) or 0.2 mM fructose-1-phosphate (F1P). In these conditions, GST-GK(pAla449Thr) activity in the absence of GKRP was 0.8±0.09 U/mg of protein.
Figure 2 Effect of mutation p.Ala449Thr on the GK interaction with GKRP. A) Inhibition of glucokinase activity by human GKRP. Enzyme activity was measured at 5 mM glucose as described in Material and Methods, in the presence of 10 µM S6P (left panel) or 0.2 mM F1P (right panel). Results are means ± SEM for three independent enzyme purifications assayed in triplicate. B) Two-hybrid interaction of GBD-GKRP with GAD-GK or GAD-GK(p.Ala449Thr) mutant. Yeast strain Y187 was used, and fusion proteins were expressed from pGBKT7 and pACTII derivatives. Values are means ± SEM from ß-galactosidase activity of six independent transformants.

- decrease of I50 for palmitoyl-CoA vs wild type (GST-GK(p.Ala449Thr) [1]): ~26%
- IC50 (GST-GK(p.Ala449Thr) [1]; glucose 1, 1.5 and 2 mM, 180 nM protein, read-out: I50 for palmitoyl-CoA): 2240 ± 140 nM
- IC50 (Wild-type GST-GK): 3060 ± 270 nM
- IC50 (GST-GK(p.Gly223Ser)): 1420 ± 130 nM
Molecule: CCCCCCCCCCCCCCCC(=O)SCCNC(=O)CCNC(=O)[C@H](O)C(C)(C)COP(=O)(O)OP(=O)(O)OC[C@H]1O[C@@H](n2cnc3c(N)ncnc32)[C@H](O)[C@@H]1OP(=O)(O)O [palmitoyl-CoA]

- enzymatic inhibition by GKRP, mutant vs wild type (GST-GK(p.Ala449Thr) [2]): the same
B1: GKRP: purified human glucokinase regulatory protein, competitive inhibitor with respect to glucose (protein, UniProt Q14397 1-625, looked up)
Glucokinase regulatory protein: MPGTKRFQHVIETPEPGKWELSGYEAAVPITEKSNPLTQDLDKADAENIVRLLGQCDAEIFQEEGQALSTYQRLYSESILTTMVQVAGKVQEVLKEPDGGLVVLSGGGTSGRMAFLMSVSFNQLMKGLGQKPLYTYLIAGGDRSVVASREGTEDSALHGIEELKKVAAGKKRVIVIGISVGLSAPFVAGQMDCCMNNTAVFLPVLVGFNPVSMARNDPIEDWSSTFRQVAERMQKMQEKQKAFVLNPAIGPEGLSGSSRMKGGSATKILLETLLLAAHKTVDQGIAASQRCLLEILRTFERAHQVTYSQSPKIATLMKSVSTSLEKKGHVYLVGWQTLGIIAIMDGVECIHTFGADFRDVRGFLIGDHSDMFNQKAELTNQGPQFTFSQEDFLTSILPSLTEIDTVVFIFTLDDNLTEVQTIVEQVKEKTNHIQALAHSTVGQTLPIPLKKLFPSIISITWPLLFFEYEGNFIQKFQRELSTKWVLNTVSTGAHVLLGKILQNHMLDLRISNSKLFWRALAMLQRFSGQSKARCIESLLRAIHFPQPLSDDIRAAPISCHVQVAHEKEQVIPIALLSLLFRCSITEAQAHLAAAPSVCEAVRSALAGPGQKRTADPLEILEPDVQ
